The NIST ThermoML archive (doi:10.1016/j.jct.2016.05.021)

Legend:
[1] = 100 kPa; for speed of sound: Frequency=3 MHz, Sing-around technique in a fixed-path interferometer; for mass density: Vibrating tube method
[2] = refractive index (Na D-line) (dimensionless); settings: 100 kPa, Standard Abbe refractometry
[3] = xn = mol fraction of the nth substance listed; settings: 100 kPa, Liquid, x1 = 1; for speed of sound: Frequency=3 MHz, Sing-around technique in a fixed-path interferometer; for mass density: Vibrating tube method
[4] = refractive index (Na D-line) (dimensionless); xn = mol fraction of the nth substance listed; settings: 100 kPa, Liquid, Standard Abbe refractometry, x1 = 1

CCCC[n+]1ccn(C)c1.O=S(=O)([N-]S(=O)(=O)C(F)(F)F)C(F)(F)F
Liquid
Settings | mass density, [1] [kg/m3] | refractive index, [2] | speed of sound, [1] [m/s]
298.15 K | 1433.72 | 1.42671 | 1227.9
303.15 K | 1428.95 | 1.42523 | 1216.8
308.15 K | 1424.18 | 1.42374 | 1205.8
313.15 K | 1419.41 | 1.42225 | 1195
318.15 K | 1414.64 | 1.42076 | 1184.2
323.15 K | 1409.87 | 1.41923 | 1173.6

CCCC[n+]1ccn(C)c1.O=S(=O)([N-]S(=O)(=O)C(F)(F)F)C(F)(F)F + O=C1CCCN1
Settings | mass density, [3] [kg/m3] | refractive index, [4] | speed of sound, [3] [m/s]
298.15 K | 1433.72 | 1.42671 | 1227.9
303.15 K | 1428.95 | 1.42523 | 1216.8
308.15 K | 1424.18 | 1.42374 | 1205.8
313.15 K | 1419.41 | 1.42225 | 1195
318.15 K | 1414.64 | 1.42076 | 1184.2
323.15 K | 1409.87 | 1.41923 | 1173.6

O=C1CCCN1 [2-pyrrolidinone]
Metastable liquid
Settings | mass density, [1] [kg/m3] | refractive index, [2] | speed of sound, [1] [m/s]
298.15 K | 1107.16 | 1.48591 | 1634.3
303.15 K | 1103.07 | 1.48403 | 1617.7
308.15 K | 1098.99 | 1.48218 | 1602.3
313.15 K | 1094.9 | 1.48033 | 1585.4
318.15 K | 1090.82 | 1.47841 | 1569.4
323.15 K | 1086.75 | 1.47649 | 1553.5
